23 compounds from patent US10780090B2, “Heteroaryl compounds useful as inhibitors of SUMO activating enzyme” (Millennium Pharmaceuticals, Inc., priority 2014, dated 2020) can be followed below.

The assay has as its target recombinant human SAE enzyme (Homo sapiens (Human), UniProt Q9UBT2). Put plainly: SAE HTRF enzyme assay. Conditions: for Percent Inhibition: SAE inhibition at compound concentration 0.111 μM; for inhibition at 0.111 µM: Concentration 0.111 μM, read-out: Percent Inhibition. Type of assay: biochemical. An outline of the steps: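 0.11 nM SAE incubated with 0.5 μM ATP, 0.01 μM Ubc9-GST and 0.125 μM Sumo-Flag in HEPES pH 7.5, MgCl2, GSH, BSA, ±inhibitor, 105 min at 24° C. EDTA stop; Eu-cryptate anti-Flag/XL-APC anti-GST HTRF read after 2 h. Values given as single-concentration % inhibition or IC50.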
Background: TR-FRET usually uses a lanthanide donor and a delayed reading to cut background.

Setting [1] is: SAE inhibition, class symbols, legend in nM.

recombinant human SAE enzyme, sequence (Q9UBT2 whole entry): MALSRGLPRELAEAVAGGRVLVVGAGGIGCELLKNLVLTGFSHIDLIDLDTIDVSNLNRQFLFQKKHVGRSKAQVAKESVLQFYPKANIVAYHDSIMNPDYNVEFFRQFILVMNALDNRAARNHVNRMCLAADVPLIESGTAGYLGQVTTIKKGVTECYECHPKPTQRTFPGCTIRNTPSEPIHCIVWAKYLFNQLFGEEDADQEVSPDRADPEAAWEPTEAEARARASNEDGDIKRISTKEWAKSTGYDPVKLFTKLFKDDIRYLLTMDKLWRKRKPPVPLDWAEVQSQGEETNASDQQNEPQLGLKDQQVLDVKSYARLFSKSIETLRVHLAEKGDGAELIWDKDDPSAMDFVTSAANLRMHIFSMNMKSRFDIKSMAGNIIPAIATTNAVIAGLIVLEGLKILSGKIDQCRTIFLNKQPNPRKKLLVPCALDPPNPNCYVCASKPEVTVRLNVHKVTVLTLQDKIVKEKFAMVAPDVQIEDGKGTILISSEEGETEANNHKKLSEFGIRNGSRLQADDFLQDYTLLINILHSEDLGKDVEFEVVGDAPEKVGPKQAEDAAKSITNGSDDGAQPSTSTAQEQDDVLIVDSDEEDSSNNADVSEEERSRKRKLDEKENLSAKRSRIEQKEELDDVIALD
recombinant human SAE enzyme, sequence (Q9UBE0 whole entry partner): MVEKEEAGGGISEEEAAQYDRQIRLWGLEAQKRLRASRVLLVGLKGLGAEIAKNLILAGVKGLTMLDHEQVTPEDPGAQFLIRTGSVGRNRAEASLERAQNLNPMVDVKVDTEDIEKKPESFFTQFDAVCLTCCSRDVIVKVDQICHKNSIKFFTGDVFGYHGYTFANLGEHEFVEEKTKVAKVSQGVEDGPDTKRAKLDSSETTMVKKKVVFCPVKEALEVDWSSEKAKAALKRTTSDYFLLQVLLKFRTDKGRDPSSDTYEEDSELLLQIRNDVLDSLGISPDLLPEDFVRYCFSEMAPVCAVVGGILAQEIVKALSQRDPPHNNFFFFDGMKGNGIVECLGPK

Turning to `Cc1sc(C(=O)c2cncnc2N[C@@H]2C[C@H](COS(N)(=O)=O)[C@@H](O)C2)nc1[C@H](O)c1cccc(Cl)c1` (single isomer, unassigned) [I-355b, [(1R,2S,4R)-4-{[5-({4-[(R)-(3-chlorophenyl)(hydroxy)methyl]-5-methyl-1,3-thiazol-2-yl}carbonyl)pyrimidin-4-yl]amino}-2-hydroxycyclopentyl]methyl sulfamate or [(1R,2S,4R)-4-{[5-({4-[(S)-(3-chlorophenyl)(hydroxy)methyl]-5-methyl-1,3-thiazol-2-yl}carbonyl)pyrimidin-4-yl]amino}-2-hydroxycyclopentyl]methyl sulfamate], the “Percent Inhibition” value is 71%. Also, the IC50 (in general, the concentration that inhibits the measured activity by half) under setting [1] was in the range of 10 to 100 nM.
As for `Cc1nc2n(c1C)CCO[C@@H]2c1cc(C(=O)c2cncnc2N[C@@H]2C[C@H](COS(N)(=O)=O)[C@@H](O)C2)sc1C` (single isomer, unassigned) [I-356a, [(1R,2S,4R)-4-{[5-({4-[(8R)-2,3-dimethyl-5,6-dihydro-8H-imidazo[2,1-c][1,4]oxazin-8-yl]-5-methyl-2-thienyl}carbonyl)pyrimidin-4-yl]amino}-2-hydroxycyclopentyl]methyl sulfamate or [(1R,2S,4R)-4-{[5-({4-[(8S)-2,3-dimethyl-5,6-dihydro-8H-imidazo[2,1-c][1,4]oxazin-8-yl]-5-methyl-2-thienyl}carbonyl)pyrimidin-4-yl]amino}-2-hydroxycyclopentyl]methyl sulfamate], the “Percent Inhibition” value turned out to be 52%. Under setting [1], the IC50 lay in the range of 10 to 100 nM.
Taken in the same sequence, the figures for `Cc1nc2n(c1C)CCO[C@@H]2c1cc(C(=O)c2cncnc2N[C@@H]2C[C@H](COS(N)(=O)=O)[C@@H](O)C2)sc1C` (single isomer, unassigned) [I-356b, [(1R,2S,4R)-4-{[5-({4-[(8R)-2,3-dimethyl-5,6-dihydro-8H-imidazo[2,1-c][1,4]oxazin-8-yl]-5-methyl-2-thienyl}carbonyl)pyrimidin-4-yl]amino}-2-hydroxycyclopentyl]methyl sulfamate or [(1R,2S,4R)-4-{[5-({4-[(8S)-2,3-dimethyl-5,6-dihydro-8H-imidazo[2,1-c][1,4]oxazin-8-yl]-5-methyl-2-thienyl}carbonyl)pyrimidin-4-yl]amino}-2-hydroxycyclopentyl]methyl sulfamate] were 99% and under 10 nM.
`NS(=O)(=O)OC[C@H]1C[C@@H](Nc2ncncc2C(=O)c2cc(Cc3cccc(Br)c3)cs2)[C@H](O)[C@@H]1O` [I-26, {(1R,2R,3S,4R)-4-[(5-{[4-(3-Bromobenzyl)-2-thienyl]carbonyl}pyrimidin-4-yl)amino]-2,3-dihydroxycyclopentyl}methyl sulfamate]: the inhibition (commonly the share of the control response that was lost under treatment) at 0.111 µM stood at 100%. Moreover, where the note is “class symbols A/B/C”, the half-inhibitory concentration (IC50) was under 10 nM.
As for `Cc1oc(C(=O)c2cncnc2N[C@@H]2C[C@H](COS(N)(=O)=O)[C@@H](O)C2)cc1Cc1cccc(Cl)c1` [I-33, [(1R,2S,4R)-4-({5-[4-(3-chlorobenzyl)-5-methyl-2-furoyl]pyrimidin-4-yl}amino)-2-hydroxycyclopentyl]methyl sulfamate], the inhibition at 0.111 µM turned out to be 100%. In addition, the half-inhibitory concentration (IC50) (class symbols A/B/C) was under 10 nM.
With `Cc1oc(C(=O)c2cncnc2N[C@@H]2C[C@H](COS(N)(=O)=O)[C@@H](O)C2)cc1Cc1cccc(Br)c1` [I-34, [(1R,2S,4R)-4-({5-[4-(3-bromobenzyl)-5-methyl-2-furoyl]pyrimidin-4-yl}amino)-2-hydroxycyclopentyl]methyl sulfamate], the inhibition at 0.111 µM turned out to be 99%. Besides, the IC50 (class symbols A/B/C) is under 10 nM.
Regarding `NS(=O)(=O)OC[C@H]1C[C@@H](Nc2ncncc2C(=O)c2cc(Cc3cccc(Cl)c3)c(CO)s2)C[C@@H]1O` [I-35, {(1R,2S,4R)-4-[(5-{[4-(3-chlorobenzyl)-5-(hydroxymethyl)-2-thienyl]carbonyl}pyrimidin-4-yl)amino]-2-hydroxycyclopentyl}methyl sulfamate], the inhibition at 0.111 µM amounted to 98%. Further, for the setting “class symbols A/B/C”, the IC50 was under 10 nM.
Take `Cc1sc(C(=O)c2cncnc2N[C@@H]2C[C@H](COS(N)(=O)=O)[C@@H](O)C2)cc1Cn1cc(I)cn1` [I-37, [(1R,2S,4R)-2-hydroxy-4-{[5-({4-[(4-iodo-1H-pyrazol-1-yl)methyl]-5-methyl-2-thienyl}carbonyl)pyrimidin-4-yl]amino}cyclopentyl]methyl sulfamate]: the inhibition at 0.111 µM is 98%.
On the same count and under the same terms, in the case of `Cc1sc(C(=O)c2cncnc2N[C@@H]2C[C@H](COS(N)(=O)=O)[C@@H](O)C2)cc1Cn1cc(Br)cn1` [I-39, [(1R,2S,4R)-4-{[5-({4-[(4-bromo-1H-pyrazol-1-yl)methyl]-5-methyl-2-thienyl}carbonyl)pyrimidin-4-yl]amino}-2-hydroxycyclopentyl]methyl sulfamate] it was 98%; in that of `NS(=O)(=O)OC[C@H]1C[C@@H](Nc2ncncc2C(=O)c2cc(Cc3cccc(Cl)c3)cs2)C[C@@H]1O` [I-43, {(1R,2S,4R)-4-[(5-{[4-(3-chlorobenzyl)-2-thienyl]carbonyl}pyrimidin-4-yl)amino]-2-hydroxycyclopentyl}methyl sulfamate], 99%.
As for `COCc1sc(C(=O)c2cncnc2N[C@@H]2C[C@H](COS(N)(=O)=O)[C@@H](O)C2)cc1Cc1cccc(Cl)c1` [I-44, {(1R,2S,4R)-4-[(5-{[4-(3-chlorobenzyl)-5-(methoxymethyl)-2-thienyl]carbonyl}pyrimidin-4-yl)amino]-2-hydroxycyclopentyl}methyl sulfamate], the inhibition at 0.111 µM came out at 100%. Also, under “class symbols A/B/C”, the half-maximal inhibitory concentration (IC50) was under 10 nM.
As to `Cc1cccc(Cc2cc(C(=O)c3cncnc3N[C@@H]3C[C@H](COS(N)(=O)=O)[C@@H](O)C3)sc2C)c1` [I-45, {(1R,2S,4R)-2-hydroxy-4-[(5-{[5-methyl-4-(3-methylbenzyl)-2-thienyl]carbonyl}pyrimidin-4-yl)amino]cyclopentyl}methyl sulfamate], the inhibition at 0.111 µM is 99%. The IC50 (class symbols A/B/C) was under 10 nM.
Regarding `NS(=O)(=O)OC[C@H]1C[C@@H](Nc2ncncc2C(=O)c2cc(Cc3cccc(Br)n3)c(Cl)s2)C[C@@H]1O` [I-46, [(1R,2S,4R)-4-{[5-({4-[(6-bromopyridin-2-yl)methyl]-5-chloro-2-thienyl}carbonyl)pyrimidin-4-yl]amino}-2-hydroxycyclopentyl]methyl sulfamate], the inhibition at 0.111 µM stood at 98%.
Take `Cc1sc(C(=O)c2cncnc2N[C@@H]2C[C@H](COS(N)(=O)=O)[C@@H](O)C2)cc1Cc1cccc(Cl)c1` [I-51, {(1R,2S,4R)-4-[(5-{[4-(3-chlorobenzyl)-5-methyl-2-thienyl]carbonyl}pyrimidin-4-yl)amino]-2-hydroxycyclopentyl}methyl sulfamate]: the inhibition at 0.111 µM stood at 100%. In addition, the concentration for half-maximal inhibition (IC50) (class symbols A/B/C) is under 10 nM.
Taken in the same sequence, the figures for `Cc1sc(C(=O)c2cncnc2N[C@@H]2C[C@H](COS(N)(=O)=O)[C@@H](O)C2)cc1Cc1cccc(Br)c1` [I-52, {(1R,2S,4R)-4-[(5-{[4-(3-bromobenzyl)-5-methyl-2-thienyl]carbonyl}pyrimidin-4-yl)amino]-2-hydroxycyclopentyl}methyl sulfamate] were 99% and under 10 nM.
On to `NS(=O)(=O)OC[C@H]1C[C@@H](Nc2ncncc2C(=O)c2cc(Cc3cccc(Br)n3)cs2)C[C@@H]1O` [I-53, [(1R,2S,4R)-4-{[5-({4-[(6-bromopyridin-2-yl)methyl]-2-thienyl}carbonyl)pyrimidin-4-yl]amino}-2-hydroxycyclopentyl]methyl sulfamate], for which the inhibition at 0.111 µM turned out to be 99%.
Turning to `Cc1sc(C(=O)c2cncnc2N[C@@H]2C[C@H](COS(N)(=O)=O)[C@@H](O)C2)cc1Cn1cc(Cl)cn1` [I-55, [(1R,2S,4R)-4-{[5-({4-[(4-chloro-1H-pyrazol-1-yl)methyl]-5-methyl-2-thienyl}carbonyl)pyrimidin-4-yl]amino}-2-hydroxycyclopentyl]methyl sulfamate], the inhibition at 0.111 µM was found to be 97%.
Consider `Cc1cccc(Cc2coc(C(=O)c3cncnc3N[C@@H]3C[C@H](COS(N)(=O)=O)[C@@H](O)C3)c2)c1` [I-57, [(1R,2S,4R)-2-hydroxy-4-({5-[4-(3-methylbenzyl)-2-furoyl]pyrimidin-4-yl}amino)cyclopentyl]methyl sulfamate], for which the inhibition at 0.111 µM turned out to be 98%.
Consider `NS(=O)(=O)OC[C@H]1C[C@@H](Nc2ncncc2C(=O)c2cc(Cc3cccc(Br)c3)cs2)C[C@@H]1O` [I-59, {(1R,2S,4R)-4-[(5-{[4-(3-Bromobenzyl)-2-thienyl]carbonyl}pyrimidin-4-yl)amino]-2-hydroxycyclopentyl}methyl sulfamate], for which the inhibition at 0.111 µM came to 99%.
Same read-out and setting: in the case of `Cc1cccc(Cc2csc(C(=O)c3cncnc3N[C@@H]3C[C@H](COS(N)(=O)=O)[C@@H](O)C3)c2)c1` [I-60, {(1R,2S,4R)-2-hydroxy-4-[(5-{[4-(3-methylbenzyl)-2-thienyl]carbonyl}pyrimidin-4-yl)amino]cyclopentyl}methyl sulfamate] it was 99%.
Turning to `NS(=O)(=O)OC[C@H]1C[C@@H](Nc2ncncc2C(=O)c2cc(Cc3ccc(F)c(Cl)c3)cs2)C[C@@H]1O` [I-61, {(1R,2S,4R)-4-[(5-{[4-(3-chloro-4-fluorobenzyl)-2-thienyl]carbonyl}pyrimidin-4-yl)amino]-2-hydroxycyclopentyl}methyl sulfamate], the inhibition at 0.111 µM came to 98%. In addition, the concentration for half-maximal inhibition (IC50) (class symbols A/B/C) is under 10 nM.
As to `NS(=O)(=O)OC[C@H]1C[C@@H](Nc2ncncc2C(=O)c2cc(Cc3cccc(I)c3)cs2)C[C@@H]1O` [I-62, {(1R,2S,4R)-2-hydroxy-4-[(5-{[4-(3-iodobenzyl)-2-thienyl]carbonyl}pyrimidin-4-yl)amino]cyclopentyl}methyl sulfamate], the inhibition at 0.111 µM is 98%.
Take `Cc1oc(C(=O)c2cncnc2N[C@@H]2C[C@H](COS(N)(=O)=O)[C@@H](O)[C@@H]2F)cc1Cc1cccc(Br)c1` [I-64, [(1R,2R,3R,4R)-4-({5-[4-(3-bromobenzyl)-5-methyl-2-furoyl]pyrimidin-4-yl}amino)-3-fluoro-2-hydroxycyclopentyl]methyl sulfamate]: the inhibition at 0.111 µM was found to be 99%. Moreover, the IC50 (class symbols A/B/C) is under 10 nM.
